Here are results for 2 compounds from publication PMC6333442, “Conserved allosteric pathways for activation of TRPV3 revealed through engineering vanilloid-sensitivity” (eLife, 2019).

One test deals with T1, TRPV3-6M + 5PM (Mus musculus, UniProt Q8K424, A560T/A606V/F522S/F625L/F656I/F666Y/H523E/L557M/Q580E/V587L/W521Y).
T1 construct: expressed in transfected cells; host or cells: Xenopus laevis oocytes
T1 sequence (Q8K424 1-791 W521Y/F522S/H523E/L557M/A560T/Q580E/V587L/A606V/F625L/F656I/F666Y): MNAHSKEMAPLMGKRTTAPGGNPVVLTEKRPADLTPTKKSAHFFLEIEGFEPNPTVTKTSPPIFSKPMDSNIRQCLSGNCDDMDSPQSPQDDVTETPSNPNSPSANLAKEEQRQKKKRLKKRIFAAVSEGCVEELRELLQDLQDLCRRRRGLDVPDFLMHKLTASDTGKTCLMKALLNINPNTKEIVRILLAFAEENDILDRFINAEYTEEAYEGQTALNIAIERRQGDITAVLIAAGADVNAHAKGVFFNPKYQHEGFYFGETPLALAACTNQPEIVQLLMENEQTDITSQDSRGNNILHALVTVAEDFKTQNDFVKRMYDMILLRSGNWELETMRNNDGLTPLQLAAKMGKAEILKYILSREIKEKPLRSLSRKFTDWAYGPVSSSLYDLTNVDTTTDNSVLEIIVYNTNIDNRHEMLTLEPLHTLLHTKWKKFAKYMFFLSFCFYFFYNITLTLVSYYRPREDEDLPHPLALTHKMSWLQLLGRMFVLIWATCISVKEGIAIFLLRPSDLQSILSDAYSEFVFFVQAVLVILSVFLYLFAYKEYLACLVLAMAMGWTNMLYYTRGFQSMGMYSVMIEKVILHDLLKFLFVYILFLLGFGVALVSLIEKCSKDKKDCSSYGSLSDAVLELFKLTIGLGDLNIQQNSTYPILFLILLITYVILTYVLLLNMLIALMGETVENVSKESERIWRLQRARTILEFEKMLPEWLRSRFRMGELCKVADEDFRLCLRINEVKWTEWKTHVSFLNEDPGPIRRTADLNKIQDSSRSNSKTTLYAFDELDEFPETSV
The test is described as follows: Two-electrode voltage clamp, TRPV3-6M + 5PM in oocytes. The test is classed as cell-based. The conditions noted are these: capsaicin 20 μM, ±60 mV. The method, then: All channel constructs were expressed in Xenopus laevis oocytes and studied using the two-electrode voltage clamp technique (TEVC) following 1–4 days of incubation after cRNA injection. The animal care and experimental procedures were performed in accordance with the Guide for the Care and Use of Laboratory Animals and were approved by the Animal Care and Use Committee of the National Institute of Neurological Disorders and Stroke (Animal protocol number 1253–17). Oocytes were removed surgically and incubated with agitation for 1 hr in a solution containing (in mM) 82.5 NaCl, 2.5 KCl, 1 MgCl2, 5 HEPES, pH 7.6 (with NaOH), and collagenase (2 mg/ml; Worthington Biochemical, Lakewood, NJ). Defolliculated oocytes were injected with cRNA for each of the constructs and incubated at 17°C in a solution containing (in mM) 96 NaCl, 2 KCl, 1 MgCl2, 1.8 CaCl2, 5 HEPES, pH 7.6 (with NaOH), and gentamicin (50 μg/ml, GIBCO-BRL, Gaithersburg, MD). Oocyte membrane voltage was controlled using an OC-725C oocyte clamp (Warner Instruments, Hamden, CT). Data were filtered at 1–3 kHz and digitized at 20 kHz using pClamp software (Molecular Devices, Sunnyvale, CA) and a Digidata 1440A digitizer (Axon Instruments). Microelectrode resistances were 0.1–1 MΩ when filled with 3 M KCl. For recording TRP channel currents, the external recording solution contained (in mM) 100 KCl, 10 HEPES, pH 7.6 (with KOH). Experiments were performed at room temperature (~22°C), except as indicated otherwise. […] Current time courses were obtained by stepping membrane voltage every 2 s from a holding potential of 0 mV to either −60 or +60 mV for 100 ms, and plotting the mean steady-state current at the end of each voltage step as a function of total recording time. I-V relations were obtained similarly, but voltage was stepped every 2 s to a different value, in 10 mV increments and starting at −60 mV.
For orientation: Two-electrode voltage clamp holds a large cell at a set potential and records current.

The test system of test [1] is TRPV3-6M/V2P (pore domain of rat TRPV2 in TRPV3-6M). The test is described as follows: Two-electrode voltage clamp, TRPV3-6M/V2P chimera in oocytes. The conditions noted are these: RR 50 µM. The test is classed as cell-based, mouse. The method, then:
All channel constructs were expressed in Xenopus laevis oocytes and studied using the two-electrode voltage clamp technique (TEVC) following 1–4 days of incubation after cRNA injection. The animal care and experimental procedures were performed in accordance with the Guide for the Care and Use of Laboratory Animals and were approved by the Animal Care and Use Committee of the National Institute of Neurological Disorders and Stroke (Animal protocol number 1253–17). Oocytes were removed surgically and incubated with agitation for 1 hr in a solution containing (in mM) 82.5 NaCl, 2.5 KCl, 1 MgCl2, 5 HEPES, pH 7.6 (with NaOH), and collagenase (2 mg/ml; Worthington Biochemical, Lakewood, NJ). Defolliculated oocytes were injected with cRNA for each of the constructs and incubated at 17°C in a solution containing (in mM) 96 NaCl, 2 KCl, 1 MgCl2, 1.8 CaCl2, 5 HEPES, pH 7.6 (with NaOH), and gentamicin (50 μg/ml, GIBCO-BRL, Gaithersburg, MD). Oocyte membrane voltage was controlled using an OC-725C oocyte clamp (Warner Instruments, Hamden, CT). Data were filtered at 1–3 kHz and digitized at 20 kHz using pClamp software (Molecular Devices, Sunnyvale, CA) and a Digidata 1440A digitizer (Axon Instruments). Microelectrode resistances were 0.1–1 MΩ when filled with 3 M KCl. For recording TRP channel currents, the external recording solution contained (in mM) 100 KCl, 10 HEPES, pH 7.6 (with KOH). […]
For temperature-activation experiments, calcium-activated chloride currents were minimized by using calcium-free solution containing 30 µM Caccinh-A01 and recording at negative membrane voltages. Heat stimuli were achieved by passing the external recording solution through glass capillary spirals immersed in a water bath maintained at about 70°C, and recordings were performed during constant perfusion with temperature measured using a thermistor (TA-29, Warner Instruments) located close to the cell. […] The mean I vs T relations were calculated by automatically binning each of the recordings in temperature intervals of 2°C, and averaging a single data point within each interval per cell. […]

Consider `COc1cc(CNC(=O)CCCC/C=C/C(C)C)ccc1O` [capsaicin], for which the “channel activation (current response)” value at TRPV3-6M + 5PM is recorded as “cannot be activated”.

As to `N.N.N.N.N.N.N.N.N.N.N.N.N.N.[Cl-].[Cl-].[Cl-].[Cl-].[Cl-].[Cl-].[O-2].[O-2].[Ru+3].[Ru+3].[Ru+4]` [RR, ruthenium red], in test [1], the “block of RTx-activated current” value is reported as “readily blocked”.
